Source: patent US9669104B2, “Nanocomplex containing amphipathic peptide useful for efficient transfection of biomolecules” (Council of Scientific and Industrial Research, priority 2012, dated 2017)
“Also recorded” adds a separate entry of the source.

Experiments:
CHO-K1 cells [1] = test: Cellular uptake of small RNA (Siglo) by flow cytometry; format: cell-based, Chinese hamster; conditions: Siglo non-covalently complexed; for small RNA delivery: charge ratio 5; for uptake of the small RNA (fluorescence positive cells): charge ratio 5, CHO-K1, 4 h
Protocol: (§1) The uptake of the small RNA, which is noncovalently complexed with the peptides, was almost 100% in CHO-K1 cells at charge ratio 5 for Mgpe-9 and Mgpe-10. Siglo was used as a model small RNA. This RNA was used to prepare the nanocomplexes with the peptide at charge ratio 5.0. Chinese hamster ovary cells (CHO-K1) were maintained in Ham's F-12K media supplemented with 10% (v/v) Fetal bovine serum (Life Technologies, USA); at 37° C. and 5% CO2 in humidified incubator. Cells were grown in 24 well plate which was seeded 24 h before use. At a confluency of 70-80% the cells were treated with labelled nanocomplexes for 4 h at 37° C. After incubation, the media was removed and cells were washed twice with PBS supplemented with heparin (1 mg/ml). The cells were then treated with trypsin (0.25%) for 5-10 min and harvested in complete media, pelleted down, washed with PBS, resuspended in PBS having 1% BSA and then analyzed on FACS-Calibur™ (Becton Dickinson, USA) using CellQuest. Pro software. The labelled nanocomplexes were excited using 488 nm laser and detected with 530/30 nm (FL1) band pass filter. In each case total 10,000 events were acquired. Percentage of fluorescence positive cells was plotted as bars and their mean intensity was plotted as a line.
as §1, with “Siglo” for “The uptake of the small RNA, which is noncovalently complexed with the peptides, was almost 100% in CHO-K1 cells at charge ratio 5 for Mgpe-9 and Mgpe-10. Siglo”, “RNA” for “RNA.”, “plates” for “plate”, “CellQuest” for “CellQuest.”, “line. The uptake of the small RNA, which is noncovalently complexed with the peptides, was almost 100% in CHO-K1 cells at charge ratio 5 for Mgpe-9 and Mgpe-10. […] Nanocomplex containing invented peptide can carry biomolecules in the range of 20 bp to 7 kbp size.” for “line.”

MCF-7 = test: Luciferase transfection efficiency in MCF-7 cells; format: cell-based; conditions: MCF-7, charge ratio 5
From the text: (§2) The transfection efficiency in terms of reporter gene expression has been checked using luciferase reporter assay. A plasmid (pMIR-Report™ Luciferase) containing luciferase gene was complexed with the peptide and transfected to the cell. The nanocomplexes were made at different charge ratios and transfected in a wide range of cell lines. CHO-K1 cells were maintained in Ham's F-12K media and MCF-7 and A549 cells in low glucose DMEM supplemented with 10% (v/v) Fetal bovine serum (Life Technologies, USA); at 37° C. and 5% CO2 in humidified incubator. Cells were seeded 24 h before transfection in 24-well plates. […] Luciferase expression was measured in 50 μl of cell lysate supernatant using the luciferase assay substrate (Promega). Light emission was measured by integration over 1 Os in Orion microplate luminometer (Berthold Detection System, Germany). […]
(§3) CHO-K1 cells were maintained in Ham's F-12K media and MCF-7 and A549 cells in low glucose DMEM supplemented with 10% (v/v) Fetal bovine serum (Life Technologies, USA); at 37° C. and 5% CO2 in humidified incubator. […] Luciferase expression was measured in 50 μl of cell lysate supernatant using the luciferase assay substrate (Promega). Light emission was measured by integration over 10 s in Orion micro plate luminometer (Berthold Detection System, Germany). […]

CHO-K1 cells [2] = test: Luciferase transfection efficiency in CHO-K1 cells; format: cell-based, Chinese hamster
From the text: The transfection efficiency in terms of reporter gene expression has been checked using luciferase reporter assay. A plasmid (pMIR-Report™ Luciferase) containing luciferase gene was complexed with the peptide and transfected to the cell. The nanocomplexes were made at different charge ratios and transfected in a wide range of cell lines. CHO-K1 cells were maintained in Ham's F-12K media and MCF-7 and A549 cells in low glucose DMEM supplemented with 10% (v/v) Fetal bovine serum (Life Technologies, USA); at 37° C. and 5% CO2 in humidified incubator. Cells were seeded 24 h before transfection in 24-well plates. Nanocomplexes were prepared with final DNA concentration of 20 ng/μl and incubated for 1 h at room temperature. 100 μl of nanocomplex was added to cells at ˜70% confluency in serum-free media (OptiMEM, Invitrogen). After 5 h of incubation at 37° C. and 5% CO2 in humidified incubator, the media was aspirated; cells were washed with phosphate buffered saline (PBS, pH 7.4) and supplemented with 500 μl of complete growth medium. After 24 h, cells were washed with PBS and lysed with 100 μl of cell culture lysis buffer (1×CCLR, Promega). Luciferase expression was measured in 50 μl of cell lysate supernatant using the luciferase assay substrate (Promega). Light emission was measured by integration over 1 Os in Orion microplate luminometer (Berthold Detection System, Germany). Luciferase activity was normalized with total protein content of the cells estimated using BCA protein assay (Pierce).
CHO-K1 cells were maintained in Ham's F-12K media and MCF-7 and A549 cells in low glucose DMEM supplemented with 10% (v/v) Fetal bovine serum (Life Technologies, USA); at 37° C. and 5% CO2 in humidified incubator. Cells were seeded 24 h before transfection in 24-well plates. A plasmid (pMIR-Report™ Luciferase) containing luciferase gene was complexed with the peptide and transfected to the cell. The nanocomplexes were made at different charge ratios and transfected in a wide range of cell lines. Nanocomplexes were prepared with final DNA concentration of 20 ng/μl and incubated for 1 h at room temperature. 100 μl of nanocomplex was added to cells at 70% confluency in serum-free media (OptiMEM, Invitrogen). Cellfectin, Superfect and Lipofectamine2000 used as manufacturer protocol. In case of transfection in presence of serum, nanocomplexes were added in complete media. […] Luciferase expression was measured in 50 μl of cell lysate supernatant using the luciferase assay substrate (Promega). Light emission was measured by integration over 10 s in Orion micro plate luminometer (Berthold Detection System, Germany). […]

A549 = test: Luciferase transfection efficiency in A549 cells; format: cell-based; conditions: A549, charge ratio 5
From the text: as §2, §3

CHO-K1 cells [3] = test: Transfection in presence of 10% serum; format: cell-based, Chinese hamster; conditions: CHO-K1, charge ratio 20
[4] = Size and zeta potential of nanocomplexes by DLS; format: physicochemical; conditions: nanocomplexes with DNA at charge ratio 10, DNA 25 ng/μl; for Size (nm): deionized water, 25° C.
Protocol: The mean hydrodynamic diameter and zeta potential of nanocomplexes prepared at charge 10.0 at 25 ng/μl of DNA concentration in deionized water were measured by Zeta sizer Nano ZS (Malvern Instruments, UK) at a fixed angle of 173° at 25° C. Minimum of 3 readings were recorded for each sample with replicates. As presented in Table-2 all the peptides were able to make nanocomplexes with DNA. The size of nanocomplexes was ranging from 50 to 110 nm and Zeta potential was ranging from 30 to 60 mV.
The mean hydrodynamic diameter and zeta potential of nanocomplex (Table 2) prepared at charge 10 at 25 ng/μl of DNA concentration in deionized water were measured by Zeta sizer Nano ZS (Malvern Instruments, UK) at a fixed angle of 173° at 25° C. Minimum of 3 readings were recorded for each sample with replicates. All five invented peptides were able to Make monodisperse nanocomplex with sizes ranging from 50 nm to 110 nm with DNA.

CRRLRHLRHHYRRRWHRFRC [Mgpe-9, Mgpe-3 with a cysteine residue at each end]
small RNA delivery (CHO-K1 cells [1]): found to show small RNA delivery
uptake of the small RNA (fluorescence positive cells) (CHO-K1 cells [1]): ~100%
transfection efficiency (luciferase) (MCF-7): more than 10^8 RLU/mg protein
transfection efficiency compared with Cellfectin, Superfect and Lipofectamine 2000 (CHO-K1 cells [2]; CHO-K1, charge ratio 5): higher or equal transfection efficiency; also recorded: highest transfection efficiency
transfection efficiency (luciferase) (CHO-K1 cells [2]; CHO-K1, charge ratio 5, plasmid DNA non-covalently complexed): more than 10^8 RLU/mg protein
transfection efficiency (luciferase) (A549): more than 10^6 RLU/mg protein
transfection efficiency in presence of serum (CHO-K1 cells [3]): up to 10^7 RLU/mg protein
PDI [4]: 0.169 ± 0.002
Zeta potential(mV) [4]: 43.4 ± 0.1 mV
Size (nm) [4]: 75.8 ± 3.8 nm

SRLSHLRHHYSKKWHRFR (listed as Homo sapiens) [Mgpe-1, 18 mer amphipathic peptide derived from Human Protein phosphatase 1E; tested as nanocomplex with plasmid DNA]
PDI [4]: 0.151 ± 0.031
Zeta potential(mV) [4]: 36.5 ± 0.8 mV
Size (nm) [4]: 80.1 ± 7.3 nm

RRLRHLRHHYRRRWHRFR [Mgpe-3]
transfection efficiency compared with Cellfectin and Superfect (CHO-K1 cells [2]; CHO-K1, charge ratio 10): higher or equal transfection efficiency
PDI [4]: 0.152 ± 0.014
Zeta potential(mV) [4]: 33.5 ± 5.9 mV
Size (nm) [4]: 63.2 ± 4.5 nm

LLYWFRRRHRHHRRRHRR [Mgpe-4, primary amphipathic peptide by rearrangement of the amino acids of Mgpe-3]
transfection efficiency compared with Cellfectin and Superfect (CHO-K1 cells [2]; CHO-K1, charge ratio 5): higher or equal transfection efficiency
PDI [4]: 0.155 ± 0.010
Zeta potential(mV) [4]: 25.4 ± 0.2 mV
Size (nm) [4]: 62.8 ± 7.0 nm

CLLYWFRRRHRHHRRRHRRC [Mgpe-10, Mgpe-4 with a cysteine residue at each end]
small RNA delivery (CHO-K1 cells [1]): found to show small RNA delivery
uptake of the small RNA (fluorescence positive cells) (CHO-K1 cells [1]): ~100%
PDI [4]: 0.206 ± 0.004
Zeta potential(mV) [4]: 57.6 ± 3.2 mV
Size (nm) [4]: 66.2 ± 0.7 nm
